Test results taken from ChEMBL document CHEMBL3091387, “DPMA, a deoxypodophyllotoxin derivative, induces apoptosis and anti-angiogenesis in non-small cell lung cancer A549 cells” (Bioorg Med Chem Lett, 2013).
Activity calls are given as the source filed them. The rule behind the calls is not given here.

Tests used:
A549 [1] = test: Induction of apoptosis in human A549 cells assessed as late apoptotic cells at 0.5 uM after 24 hrs by annexin V-FITC/propidium iodide staining-based flow cytometric analysis (reference value: 0.65%); format: functional
A549 [2] = test: Induction of ROS generation in human A549 cells after 24 hrs by DCFH-DA dye-based laser confocal microscopic analysis; format: functional, cell-based
A549 [3] = test: Cytotoxicity against human A549 cells assessed as cell viability at 0.2 to 1 uM by MTT assay; format: functional, cell-based; details: TDE = time-dependent effect
A549 [4] = test: Induction of apoptosis in human A549 cells assessed as dead cells at 1 uM after 24 hrs by annexin V-FITC/propidium iodide staining-based flow cytometric analysis (reference value: 0.69%); format: functional
A549 [5] = test: Induction of apoptosis in human A549 cells assessed as nuclear fragmentation at 0.5 to 1 uM after 48 hrs by Hoechst 33258 staining-based phase contrast microscopic analysis; format: functional, cell-based
A549 [6] = test: Induction of apoptosis in human A549 cells assessed as early apoptotic cells at 1 uM after 24 hrs by annexin V-FITC/propidium iodide staining-based flow cytometric analysis (reference value: 0.18%); format: functional
[7] = Cytotoxicity activity human MSC assessed as cell viability at 0.01 to 1 uM after 48 hrs by MTT assay
A549 [8] = test: Induction of apoptosis in human A549 cells assessed as increase in cleaved caspase-3 protein expression at 1 uM after 24 hrs by immunofluorescence assay; format: functional, cell-based
A549 [9] = test: Induction of apoptosis in human A549 cells assessed as late apoptotic cells at 1 uM after 24 hrs by annexin V-FITC/propidium iodide staining-based flow cytometric analysis (reference value: 0.65%); format: functional
A549 [10] = test: Induction of apoptosis in human A549 cells assessed as early apoptotic cells at 5 uM after 24 hrs by annexin V-FITC/propidium iodide staining-based flow cytometric analysis (reference value: 0.18%); format: functional
A549 [11] = test: Cytotoxicity against human A549 cells assessed as cell viability after 48 hrs by MTT assay; format: functional, cell-based
A549 [12] = test: Induction of apoptosis in human A549 cells assessed as cell shrinkage at 0.5 to 1 uM after 48 hrs by Hoechst 33258 staining-based phase contrast microscopic analysis; format: functional
A549 [13] = test: Upregulation of p53 protein expression in human A549 cells by Western blot analysis; format: functional, cell-based; details: TDE = time-dependent effect
A549 [14] = test: Induction of apoptosis in human A549 cells assessed as late apoptotic cells at 5 uM after 24 hrs by annexin V-FITC/propidium iodide staining-based flow cytometric analysis (reference value: 0.65%); format: functional
A549 [15] = test: Induction of apoptosis in human A549 cells at 0.5 to 1 uM by Hoechst 33258 staining-based phase contrast microscopic analysis; format: functional, cell-based; details: TDE = time-dependent effect
Tubulin (Homo sapiens) = Tubulin (Homo sapiens) (UniProt P68371+Q9H4B7+P0DPH7+P68366+Q13509+Q71U36+P04350+Q3ZCM7+P07437+P68363+Q9BQE3+Q6PEY2+Q13885+Q9BVA1+Q9BUF5); test: Binding affinity to tubulin in human A549 cells assessed as inhibition of microtubule network formation at 1 uM after 12 to 36 hrs by indirect immunofluorescence assay; format: cell-based
A549 [16] = test: Induction of apoptosis in human A549 cells assessed as dead cells at 0.5 uM after 24 hrs by annexin V-FITC/propidium iodide staining-based flow cytometric analysis (reference value: 0.69%); format: functional
A549 [17] = test: Induction of apoptosis in human A549 cells assessed as increase in Bax protein expression at 1 uM after 24 hrs by immunofluorescence assay; format: functional, cell-based
A549 [18] = test: Upregulation of cyclin B1 protein expression in human A549 cells by Western blot analysis; format: functional, cell-based; details: TDE = time-dependent effect
A549 [19] = test: Induction of apoptosis in human A549 cells assessed as inhibition of Bcl-2 protein expression at 1 uM after 24 hrs by immunofluorescence assay; format: functional, cell-based
A549 [20] = test: Induction of apoptosis in human A549 cells after 48 hrs by Hoechst 33258 staining-based phase contrast microscopic analysis; format: functional, cell-based
A549 [21] = test: Induction of apoptosis in human A549 cells assessed as cell shrinkage at 1 uM after 36 hrs by DAPI staining-based indirect immunofluorescence assay; format: functional
A549 [22] = test: Induction of apoptosis in human A549 cells at 0.5 to 5 uM by annexin V-FITC/propidium iodide staining-based flow cytometric analysis; format: functional, cell-based; details: TDE = time-dependent effect
A549 [23] = test: Upregulation of cdc-2 protein expression in human A549 cells by Western blot analysis; format: functional, cell-based; details: TDE = time-dependent effect
A549 [24] = test: Induction of apoptosis in human A549 cells assessed as increase in apoptotic cells after 24 hrs by annexin V-FITC/propidium iodide staining-based flow cytometric analysis; format: functional, cell-based
A549 [25] = test: Downregulation of phosphorylated cdc-2 protein expression in human A549 cells by Western blot analysis; format: functional, cell-based; details: TDE = time-dependent effect
HUVEC = test: Antiangiogenic activity in HUVEC assessed as inhibition of VEGF-induced tube formation at 0.5 to 1 uM after 12 hrs by phase contrast inverted microscopic analysis; format: functional, cell-based; details: Homo sapiens
A549 [26] = test: Induction of apoptosis in human A549 cells assessed as nuclear condensation at 0.5 to 1 uM after 48 hrs by Hoechst 33258 staining-based phase contrast microscopic analysis; format: functional, cell-based
A549 [27] = test: Induction of apoptosis in human A549 cells assessed as nuclear fragmentation dispersed throughout cytoplasm at 1 uM after 36 hrs by DAPI staining-based indirect immunofluorescence assay; format: functional, cell-based
A549 [28] = test: Induction of apoptosis in human A549 cells assessed as dead cells at 5 uM after 24 hrs by annexin V-FITC/propidium iodide staining-based flow cytometric analysis (reference value: 0.69%); format: functional
A549 [29] = test: Induction of apoptosis in human A549 cells assessed as nuclear condensation dispersed throughout cytoplasm at 1 uM after 36 hrs by DAPI staining-based indirect immunofluorescence assay; format: functional, cell-based
A549 [30] = test: Induction of apoptosis in human A549 cells assessed as early apoptotic cells at 0.5 uM after 24 hrs by annexin V-FITC/propidium iodide staining-based flow cytometric analysis (reference value: 0.18%); format: functional

With `COc1cc([C@@H]2c3cc4c(cc3C[C@H]3COC(=O)[C@@H]32)OCO4)cc(OC)c1OC(=O)N[C@H](CCSC)C(N)=O` the Activity (A549 [1]) was 6.11%, the Activity (A549 [2]) was “Dose-dependent effect” and the Activity (A549 [3]) was “tde”. The Activity (A549 [4]) was 15.73%, the Activity (A549 [5]) was “Active” and the Activity (A549 [6]) was 9.28%. The Activity [7] was “Non-toxic”, the Activity (A549 [8]) was “Active” and the Activity (A549 [9]) was 13.83%. The Activity (A549 [10]) was 18.41%, the Activity (A549 [11]) was “Dose-dependent effect” and the Activity (A549 [12]) was “Active”. The Activity (A549 [13]) was “tde”, the Activity (A549 [14]) was 27.54% and the Activity (A549 [15]) was “tde”. The inhibition (Tubulin (Homo sapiens)) was “Active”, the Activity (A549 [16]) was 2.76% and the Activity (A549 [17]) was “Active”. For the same compound, the Activity (A549 [18]) was “tde”, the inhibition (A549 [19]) was “Active” and the Activity (A549 [20]) was “Dose-dependent effect”. For the same compound, the Activity (A549 [21]) was “Active”, the Activity (A549 [22]) was “tde” and the Activity (A549 [23]) was “tde”. The Activity (A549 [24]) was “Dose-dependent effect”, the Activity (A549 [25]) was “tde” and the inhibition (HUVEC) was “Active”. The Activity (A549 [26]) was “Active”, the Activity (A549 [27]) was “Active” and the Activity (A549 [28]) was 23.43%. The Activity (A549 [29]) was “Active” and the Activity (A549 [30]) was 6.22%.
